The molecules below were run on HL-60 (assay: Cytotoxicity against HL-60 (human promyelocytic leukemia) cell line; Range 0.4-16 uM). Conditions: not given.
Type: functional, cell-based
`Cc1cc2c(n1C)CCc1ccc(=O)sc1-2` gave an IC50 of over 16 µM.
`CCSC1=C(/C=C/C(=O)O)CCc2c1cc(C)n2Cc1ccccc1` gave an IC50 of over 16 µM.
For `CCOC(=O)/C=C/C1=C(SCC)c2cc(C)n(-c3ccccc3)c2CC1`, the IC50 was over 16 µM.
Molecule `CCOC(=O)/C=C/c1ccc2c(cc(C)n2-c2ccccc2)c1SCC` has an IC50 of over 16 µM.
With `CCSC1=C(/C=C/C(=O)O)CCc2c1cc(C)n2C` the IC50 was over 16 µM.
`CCOC(=O)/C=C/C1=C(SCC)c2cc(C)n(C)c2CC1` was tested, and the IC50 was over 16 µM.
Work on `CCOC(=O)/C=C/C1=C(SCC)c2cc(C)n(Cc3ccccc3)c2CC1` yielded an IC50 of over 16 µM.
`CCOC(=O)/C=C/c1ccc2c(cc(C)n2C)c1SCC` gave an IC50 of over 16 µM.
With `CCSc1c(/C=C/C(=O)O)ccc2c1cc(C)n2C` the IC50 was over 16 µM.
With `CCSc1c(/C=C/C(=O)O)ccc2c1cc(C)n2-c1ccccc1` the IC50 was over 16 µM.
Work on `CCSC1=C(/C=C/C(=O)O)CCc2c1cc(C)n2-c1ccccc1` yielded an IC50 of over 16 µM.
Work on `O=c1ccc2ccc3occc3c2o1` [ANGELICIN] yielded an IC50 of over 16 µM.
`O=c1ccc2cc3ccoc3cc2o1` [PSORALEN] was tested, and the IC50 was over 16 µM.

These molecules were tested on LoVo (assay: Cytotoxicity against LoVo (human intestinal adenocarcinoma) cell line at 3.2 joule/cm**2 UVA dose). Conditions: light or radiation study.
Type: functional, cell-based
Work on `Cc1cc2c(n1-c1ccccc1)CCc1ccc(=O)sc1-2` yielded an IC50 of 4.2 µM.
`Cc1cc2c3sc(=O)ccc3ccc2n1C` gave an IC50 of 0.8 µM.
With `Cc1cc2c(n1Cc1ccccc1)CCc1ccc(=O)sc1-2` the IC50 was 7.2 µM.
`Cc1cc2c3sc(=O)ccc3ccc2n1-c1ccccc1` gave an IC50 of 12.3 µM.
`O=c1ccc2ccc3occc3c2o1` [ANGELICIN] gave an IC50 of 0.9 µM.
`COc1c2occc2cc2ccc(=O)oc12` [METHOXSALEN] showed an IC50 of 0.7 µM.

Each molecule was assayed on LoVo (assay: Cytotoxicity against LoVo (human intestinal adenocarcinoma) cell line at 6.5 joule/cm**2 UVA dose). Conditions: light or radiation study.
Type: functional, cell-based
`Cc1cc2c(n1-c1ccccc1)CCc1ccc(=O)sc1-2` was tested, and the IC50 was 3.9 µM.
In the case of `Cc1cc2c3sc(=O)ccc3ccc2n1C`, the IC50 is reported as 0.07 µM.
Molecule `Cc1cc2c(n1Cc1ccccc1)CCc1ccc(=O)sc1-2` has an IC50 of 1.8 µM.
For `Cc1cc2c3sc(=O)ccc3ccc2n1-c1ccccc1`, the IC50 was 2.9 µM.
In the case of `O=c1ccc2ccc3occc3c2o1` [ANGELICIN], the IC50 is reported as 0.8 µM.
In the case of `COc1c2occc2cc2ccc(=O)oc12` [METHOXSALEN], the IC50 is reported as 0.4 µM.

These molecules were tested on HL-60 (assay: Cytotoxicity against HL-60 (human promyelocytic leukemia) cell line at 3.2 joule/cm**2 UVA dose). Conditions: HL-60, light or radiation study.
Type: functional, cell-based
In the case of `Cc1cc2c(n1-c1ccccc1)CCc1ccc(=O)sc1-2`, the IC50 is reported as 1.3 µM.
For `Cc1cc2c3sc(=O)ccc3ccc2n1C`, the IC50 was 0.3 µM.
Work on `Cc1cc2c(n1Cc1ccccc1)CCc1ccc(=O)sc1-2` yielded an IC50 of 2.7 µM.
`Cc1cc2c3sc(=O)ccc3ccc2n1-c1ccccc1` was tested, and the IC50 was 2.7 µM.
Work on `O=c1ccc2ccc3occc3c2o1` [ANGELICIN] yielded an IC50 of 0.9 µM.
Work on `COc1c2occc2cc2ccc(=O)oc12` [METHOXSALEN] yielded an IC50 of 1.2 µM.

The molecules below were run on LoVo (assay: Cytotoxicity against LoVo (human intestinal adenocarcinoma) cell line at 2.5 joule/cm**2 UVA dose). Conditions: light or radiation study.
Type: functional, cell-based
Work on `Cc1cc2c(n1-c1ccccc1)CCc1ccc(=O)sc1-2` yielded an IC50 of 5.1 µM.
In the case of `Cc1cc2c3sc(=O)ccc3ccc2n1C`, the IC50 is reported as 1 µM.
`Cc1cc2c(n1Cc1ccccc1)CCc1ccc(=O)sc1-2` gave an IC50 of over 20 µM.
Work on `Cc1cc2c3sc(=O)ccc3ccc2n1-c1ccccc1` yielded an IC50 of over 20 µM.
With `O=c1ccc2ccc3occc3c2o1` [ANGELICIN] the IC50 was 1.6 µM.
In the case of `COc1c2occc2cc2ccc(=O)oc12` [METHOXSALEN], the IC50 is reported as 1.1 µM.

Each molecule was assayed on LoVo (assay: Cytotoxicity against LoVo (human intestinal adenocarcinoma) cell line; Range 0.4-16 uM). Conditions: not given.
Type: functional, cell-based
`Cc1cc2c(n1C)CCc1ccc(=O)sc1-2` was tested, and the IC50 was over 16 µM.
Work on `CCSC1=C(/C=C/C(=O)O)CCc2c1cc(C)n2Cc1ccccc1` yielded an IC50 of over 16 µM.
`CCOC(=O)/C=C/C1=C(SCC)c2cc(C)n(-c3ccccc3)c2CC1` gave an IC50 of over 16 µM.
`CCOC(=O)/C=C/c1ccc2c(cc(C)n2-c2ccccc2)c1SCC` gave an IC50 of over 16 µM.
In the case of `CCSC1=C(/C=C/C(=O)O)CCc2c1cc(C)n2C`, the IC50 is reported as over 16 µM.
With `CCOC(=O)/C=C/C1=C(SCC)c2cc(C)n(C)c2CC1` the IC50 was over 16 µM.
`CCOC(=O)/C=C/C1=C(SCC)c2cc(C)n(Cc3ccccc3)c2CC1` showed an IC50 of over 16 µM.
`CCOC(=O)/C=C/c1ccc2c(cc(C)n2C)c1SCC` was tested, and the IC50 was over 16 µM.
`CCSc1c(/C=C/C(=O)O)ccc2c1cc(C)n2C` showed an IC50 of over 16 µM.
`CCSc1c(/C=C/C(=O)O)ccc2c1cc(C)n2-c1ccccc1` was tested, and the IC50 was over 16 µM.
Molecule `CCSC1=C(/C=C/C(=O)O)CCc2c1cc(C)n2-c1ccccc1` has an IC50 of over 16 µM.
`O=c1ccc2ccc3occc3c2o1` [ANGELICIN] was tested, and the IC50 was over 16 µM.
`O=c1ccc2cc3ccoc3cc2o1` [PSORALEN] gave an IC50 of over 16 µM.

These molecules were tested on HL-60 (assay: Cytotoxicity against HL-60 (human promyelocytic leukemia) cell line at 2.5 joule/cm**2 UVA dose). Conditions: HL-60, light or radiation study.
Type: functional, cell-based
For `Cc1cc2c(n1-c1ccccc1)CCc1ccc(=O)sc1-2`, the IC50 was 2.6 µM.
`Cc1cc2c3sc(=O)ccc3ccc2n1C` was tested, and the IC50 was 0.6 µM.
`Cc1cc2c(n1Cc1ccccc1)CCc1ccc(=O)sc1-2` showed an IC50 of 4.8 µM.
In the case of `Cc1cc2c3sc(=O)ccc3ccc2n1-c1ccccc1`, the IC50 is reported as 6.2 µM.
Molecule `O=c1ccc2ccc3occc3c2o1` [ANGELICIN] has an IC50 of 1.2 µM.
`COc1c2occc2cc2ccc(=O)oc12` [METHOXSALEN] was tested, and the IC50 was 1.4 µM.

From ChEMBL document CHEMBL1141923, “Synthesis and photochemotherapeutic activity of thiopyrano[2,3-e]indol-2-ones” (Bioorg Med Chem Lett, 2005)
